# According to paper PMC9030166, “Natural Phaeosphaeride A Derivatives Overcome Drug Resistance of Tumor Cells and Modulate Signaling Pathways” (Pharmaceuticals, 2022):
# “And” between values parts separate entries of the source, which are not always exact repeats. Equal values may be shown once.
# Key:
# A549 = experiment: MTT cytotoxicity, A549 non-small cell lung cancer cells; format: cell-based, human; conditions: 48 h; for IC50: Homo sapiens, A549, adhesive tumor culture
# Description: (§1) Cell cultures used in the work: adhesive cultures HBL-100 cells (cells of a normal mammary gland epithelium, immortalized by the SV40 virus and acquired tumorigenicity); MCF-7 breast cancer cells; PC-3 prostate adenocarcinoma cells; HCT-116 colorectal cancer cells; non-small cell lung cancer cells A549; human embryonic kidney cells HEK293; suspension cultures (NCI-H929 and RPMI8226 multiple myeloma cells), K562 chronic myeloid leukemia cells; THP-1 acute monocytic leukemia cells; and Jurkat acute T-cell leukemia cells. We also used several primary cultures of soft tissue sarcomas at 3–4passeges, kindly provided by T.I. Fetisov (The Ethics Committee of N.N. Blokhin NMRCO, protocol code 18-28-09095 and date of approval 28 September 2018).
# (§2) Modifications of cell lines: K562/i-S9 is a clone obtained after transfection of K562 cells with the ABCB1 (MDR1) gene-encoding P-glycoprotein [36]. Cells HBL-100/Dox and K562/i-S9_Dox are cells obtained by long-term selection with increasing concentrations of doxorubicin (Sigma-Aldrich, St. Louis, MO, USA) from HBL-100 and K562/i-S9 cells, respectively. MCF-7, A594 cells, and primary cultures of soft tissue sarcomas were cultured in DMEM medium (PanEko, Russia), PC-3 and HCT-116 cells and all suspension cultures in RPMI1640 medium (PanEko, Russia) supplemented with 10% fetal bovine serum (GE Healthcare LifeSciences, USA), and gentamicin at a concentration of 40 μg/mL at 37 °C and 5% CO2.
# (§3) Cells MCF-7, PC-3, A549, and HCT-116, and primary cultures of STSwere seeded in 96-well plates, 6 × 10^3 cells per well in 90 μL of culture medium. Suspension cultures were seeded at a concentration of 25 × 10^3 cells per well in 135 μL of medium. The test substances were dissolved in DMSO (Applichem, Council Bluffs, IA, USA) until a concentration of 1 × 10^−^2 M was obtained; for the subsequent dilution of the substances, a serum-free culture medium was used. The next day, for adhesive cultures, and on the same day, for suspension cultures, substances were added to the plates in a volume of 10 μL (adhesive cultures) and 15 μL (suspension cultures) per well at various concentrations; each concentration was added in 3–4 repetitions. The cells were cultured in the presence of substances for 48 h. Then, MTT reagent (PanEko, Moscow, Russia) was added to the wells at a concentration of 5 mg/mL in a volume of 20 μL per well. After 1.5–2 h, the medium with the reagent was removed, and the precipitate of the crystals of formazan was dissolved in 60 μL of DMSO. The optical density was determined using a Multiskan FC spectrophotometer (Thermo Scientific, Waltham, MA, USA) at a wavelength of 540 nm.
# (§4) Based on the results of the experiments, a schedule was plotted of the dependence of the percentage of surviving cells (from control) on the concentration of the compound, and the sought concentration IC50 was calculated. The experiments were carried out in 3–4 times.
# Jurkat = experiment: MTT cytotoxicity, Jurkat acute T-cell leukemia cells; format: cell-based; conditions: Homo sapiens, suspension culture, 48 h
# Description: as §1, §2, §3, §4
# CREB (pSer133) = experiment: MILLIPLEX MAP 9-Plex, CREB active form in A431 lysates; format: cell-based, human; conditions: A431 cell lysates, 10 μM, 1 h, M ± mx; control 154.5 ± 34.2
# Description: We used the MILLIPLEX MAP Multi-Pathway Magnetic Bead 9-Plex-Cell Signaling Multiplex Assay, which allows the simultaneous detection of nine phosphorylated proteins that are markers of the main intracellular signaling pathways (phosphorylation site is indicated in parentheses), a universal transcription factor that controls the expression of immune response genes; apoptosis and cell cycle NFκB (pS536); cAMP-dependent transcription factor (CREB (pS133); mitogen-activated kinase p38 (pT180/pY182); stress-activated protein kinase JNK (pT183/pY185); ribosomal […]; transcription factors STAT3 (pS727) and STAT5A/B (pY694/699); protein kinase B (Akt) (pS473); and kinase regulated by extracellular signals ERK1/2 (pT185/pY187).
# The effect of various concentrations of PPA derivatives on the cell culture was studied using xCelligence RTCA equipment (AceaBioscience, San Diego, CA, USA). The concentration closest to the IC50 (10 μM) was chosen as the experimental concentration. The selected concentration of phaeosphaeride A derivatives allows for the assessment of the early effect of compounds on cells and compares their effectiveness. In this experiment, the signaling pathways Akt (pSer473), p70S6K (pThr412), NFkB (p65-pSer536), and CREB (pSer133) were not activated (Table 8). The stress-activated signaling pathways ERK/MAP kinase 1/2 (pThr185/pTyr187), JNK (pThr183/pTyr185), and p38 (pThr180/pTyr182) were activated for these compounds.
# We used a MILLIPLEX MAP Multi-Pathway Magnetic Bead 9-Plex-Cell Signaling Multiplex Assay kit (Merck/Millipore), according to the manufacturer’s protocol. A431 cells were cultured in DMEM with 10% FBS in 24-well plates. Compounds were added to the subconfluent cells at a concentration of 10 μM in DMEM medium for 1 h. Each compound was added in 5 experimental repeats. Cell lysates were prepared with lysis buffer (Millipore) with protease inhibitors (Complete, Roche); the protein concentration in the lysates was determined by the Lowry method. In samples equalized in protein concentration, the active forms of kinase cascades were determined using a Bio-Plex 200 fluorescent analyzer (Bio-Rad).
# [1] = test system: CMT № 3 (Epithelial Sarcoma (Metastasis)); experiment: MTT cytotoxicity, primary culture of soft tissue sarcoma CMT № 3; format: cell-based; conditions: Homo sapiens, 48 h
# Description: It is believed that such cultures have a molecular profile that corresponds more with cells from the human body, in comparison with that of stable cultures of tumor cells (Table 3).
# as §1, §2
# as §3, with “Then, MTT reagent (PanEko, Moscow, Russia) was added to the wells at a concentration of 5 mg/mL in a volume of 20 μL per well. After 1.5–2 h, the medium with the reagent was removed, and the precipitate of the crystals of formazan was dissolved in 60 μL of DMSO.” left out
# Based on the results of the experiments, a schedule was plotted of the dependence of the percentage of surviving cells (from control) on the concentration of the compound, and the sought concentration IC50 was calculated. […]
# P-glycoprotein = biological target: T1, P-glycoprotein (Homo sapiens, UniProt P08183); experiment: Release of rhodamine 123 (Rd123) from K562/i-S9_Dox cells, flow cytometry; format: cell-based; conditions: K562/i-S9_Dox cells after Rd123 release, compound 20 μM, 35 min; release without compound 17.1 ± 6.6
# T1 construct: expressed in transfected cells; host or cells: K562/i-S9_Dox (K562 transfected with ABCB1/MDR1, then selected with increasing doxorubicin)
# T1 sequence (P08183 whole entry): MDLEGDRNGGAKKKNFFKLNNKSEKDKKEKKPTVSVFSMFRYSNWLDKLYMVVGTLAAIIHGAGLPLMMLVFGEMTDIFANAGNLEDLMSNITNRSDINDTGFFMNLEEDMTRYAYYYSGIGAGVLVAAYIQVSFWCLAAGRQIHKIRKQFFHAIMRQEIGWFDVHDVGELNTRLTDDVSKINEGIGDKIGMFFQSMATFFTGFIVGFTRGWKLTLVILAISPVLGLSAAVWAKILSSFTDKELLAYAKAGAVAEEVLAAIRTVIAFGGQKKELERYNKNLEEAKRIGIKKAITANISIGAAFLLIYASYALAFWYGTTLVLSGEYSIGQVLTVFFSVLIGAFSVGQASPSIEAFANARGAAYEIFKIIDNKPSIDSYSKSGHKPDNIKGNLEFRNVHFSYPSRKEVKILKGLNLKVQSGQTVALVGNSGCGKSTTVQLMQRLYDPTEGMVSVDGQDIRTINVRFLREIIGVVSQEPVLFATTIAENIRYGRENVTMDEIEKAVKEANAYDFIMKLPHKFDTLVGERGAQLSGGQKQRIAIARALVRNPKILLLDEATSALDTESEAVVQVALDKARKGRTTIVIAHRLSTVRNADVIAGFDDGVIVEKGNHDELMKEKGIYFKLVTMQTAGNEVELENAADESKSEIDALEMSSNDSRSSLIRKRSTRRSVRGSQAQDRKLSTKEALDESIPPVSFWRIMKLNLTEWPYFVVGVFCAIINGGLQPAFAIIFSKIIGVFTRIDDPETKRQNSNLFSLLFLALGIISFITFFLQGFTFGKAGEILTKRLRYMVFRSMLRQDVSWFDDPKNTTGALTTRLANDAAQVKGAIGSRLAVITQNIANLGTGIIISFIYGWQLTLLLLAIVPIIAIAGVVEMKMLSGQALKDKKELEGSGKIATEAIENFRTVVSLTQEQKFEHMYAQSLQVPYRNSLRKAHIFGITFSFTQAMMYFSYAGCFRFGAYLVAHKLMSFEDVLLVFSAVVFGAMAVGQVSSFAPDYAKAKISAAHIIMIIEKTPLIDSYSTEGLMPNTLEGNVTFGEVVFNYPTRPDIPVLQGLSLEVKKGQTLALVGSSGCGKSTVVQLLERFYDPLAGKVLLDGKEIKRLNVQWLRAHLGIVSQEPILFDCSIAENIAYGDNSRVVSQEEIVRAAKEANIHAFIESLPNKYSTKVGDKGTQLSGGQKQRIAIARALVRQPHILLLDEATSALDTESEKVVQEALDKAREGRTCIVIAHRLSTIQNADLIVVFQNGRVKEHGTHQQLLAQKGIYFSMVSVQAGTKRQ
# Method: The principle of the test is as follows: Rd123 is a fluorophore and a known P-gp substrate. During incubation, Rd123 enters the cells by simple diffusion, and then Rd123 begins to interact with P-gp, which releases it from the cell. Cells in which Rd123 is present are stained and can be detected by flow cytometry. The more efficiently P-gp works, the less stained cells in the population remain over time.
# The experiment used K562/i-S9_Dox cells with P-gp overexpression. Cells (5 × 10^5 per point) were incubated with Rd123 at a concentration of 3.5 μg/mL for 20 min in serum-free RPMI1640 medium. Furthermore, the efficiency of Rd123 entry into cells was assessed. […] Incubation with substances took place for 35 min in 1 mL of serum-free medium. Then, the cells were precipitated, washed with PBS solution, and the % of stained cells in the population were assessed on a flow cytometer.
Structure (SMILES),% Luminous Cells (P-glycoprotein),"IC50 value, A549 (A549; adhesive tumor culture)",IC50 (Jurkat) [µM],CREB (pSer133) fluorescence intensity (CREB (pSer133)),IC50 (A549) [µM],IC50 [1] [µM]
CCCCC[C@@H]1OC2=C(C(=O)N(OC)/C2=C\n2cnnc2)C(n2cnnc2)[C@@]1(C)O (stereo partly drawn) [Compound 10],,not active,94 ± 22.6,584.8 ± 105.5 *↑ rel. units,,
"C=C1C2=C(C(=O)N1OC)[C@@H](N(CCCC)CCCC)[C@@](C)(O)[C@H](CCCCC)O2 [Compound 5, (2S,3R,4R)-4-(dibutylamino)-3-hydroxy-6-methoxy-3-methyl-7-methylene-2-pentyl-3,4,6,7-tetrahydropyrano[2,3-c]pyrrol-5(2H)-one]",,,3.7 ± 0.2,202.1 ± 26.3 rel. units,23.4 ± 2.3,

# Continued, in another order:
% Luminous Cells (P-glycoprotein),Structure (SMILES),"IC50 value, A549 (A549; adhesive tumor culture)",IC50 (Jurkat) [µM],CREB (pSer133) fluorescence intensity (CREB (pSer133)),IC50 (A549) [µM],IC50 [1] [µM]
82% and 82.4 ± 3.0%,"C=C1C2=C(C(=O)N1OC)[C@@H](N(C)C)[C@@](C)(O)[C@H](CCCCC)O2 [Compound 2, (2S,3R,4R)-4-(dimethylamino)-3-hydroxy-6-methoxy-3-methyl-7-methylene-2-pentyl-3,4,6,7-tetrahydropyrano[2,3-c]pyrrol-5(2H)-one]",,1.1 ± 0.1,610.0 ± 113.0 *↑ rel. units,9.6 ± 2.1,7.8 ± 0.6
80% and 80.2 ± 6.2%,"C=C1C2=C(C(=O)N1OC)[C@@H](N(CC)CCO)[C@@](C)(O)[C@H](CCCCC)O2 [Compound 9, (2S,3R,4R)-4-[ethyl(2-hydroxyethyl)amino]-3-hydroxy-6-methoxy-3-methyl-7-methylene-2-pentyl-3,4,6,7-tetrahydropyrano[2,3-c]pyrrol-5(2H)-one]",,1.3 ± 0.4,339.8 ± 53.3 *↑ rel. units,8.9 ± 0.2,13 ± 0.9
73% and 73.4 ± 6.7%,C=C1C2=C(C(=O)N1OC)[C@@H](N1CCCC1)[C@@](C)(O)[C@H](CCCCC)O2 [Compound 1],,1.5 ± 0.4,329.9 ± 48.4 *↑ rel. units,14 ± 0.1,4.8 ± 0.9
